Drawing on PubChem BioAssay (NCI), this text covers GI50 and TGI for 8 compounds.

In general, GI50 refers to the concentration at which growth is held to half of that of the control. For orientation: TGI means the concentration giving total growth inhibition. A lower TGI goes with greater sensitivity of the cells.

Some test systems named below: OVCAR-4 ovarian; IGROV1 ovarian; SF-539 CNS; SNB-75 CNS; ACHN renal; MALME-3M melanoma; HS 578T breast; HL-60(TB) leukemia; U251 CNS; OVCAR-3 ovarian.
Holding throughout (test): DTP human tumour cell line panel, 48 h

Molecules are shown by their SMILES. Several values for one entry are separate records, joined by “and”; a condition that tells them apart may be missing. Equal values may be shown once.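 Cells were grown in 96-well plates and exposed to each compound for 48 hours at five concentrations; endpoints were interpolated linearly between bracketing concentrations, or set to the highest concentration if not reached. Here, GI50 denotes the concentration required for 50% inhibition of growth. The concentration for full growth arrest is given as TGI.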

For the compound `CC[C@@]1(O)C(=O)OCc2c1cc1n(c2=O)Cc2cc3cc(N)ccc3nc2-1`, the GI50 with OVCAR-4 ovarian was 0.048 µM and 0.169 µM; in the assay on IGROV1 ovarian, 0.056 µM; in the assay with MALME-3M melanoma, 0.101 µM and 0.037 µM; in the assay on HS 578T breast, 0.532 µM and 2.41 µM; in the assay with HL-60(TB) leukemia it was 0.0718 µM; in the assay with U251 CNS, 0.0013 µM. The GI50 with OVCAR-3 ovarian was 0.0847 µM and 0.0653 µM. The concentration for total growth inhibition (TGI) was 0.233 µM with OVCAR-4 ovarian; 3.06 µM and 2.21 µM with IGROV1 ovarian; 0.0398 µM in the assay on SF-539 CNS; 0.364 µM and 0.0446 µM with SNB-75 CNS; 0.108 µM and 0.013 µM with ACHN renal; 1.21 µM and 0.478 µM with MALME-3M melanoma. In addition, the TGI is 1.03 µM with HL-60(TB) leukemia; 0.134 µM with U251 CNS; 0.608 µM and 0.346 µM with OVCAR-3 ovarian.

In the case of `N#C[C@@H]1C(n2ccc(N)nc2=O)O[C@H](CO)[C@H]1O` (stereo partly specified), the GI50 is > 100 µM with OVCAR-4 ovarian; > 100 µM in the assay with IGROV1 ovarian; > 100 µM with SF-539 CNS; > 100 µM with SNB-75 CNS; 1.47 µM in the assay on ACHN renal; > 55.4 µM in the assay on MALME-3M melanoma. Moreover, the GI50 with HS 578T breast was > 100 µM; in the assay on HL-60(TB) leukemia it was 29.4 µM; in the assay with U251 CNS, 42.7 µM; in the assay on OVCAR-3 ovarian, > 100 µM. Also, the TGI in the assay with OVCAR-4 ovarian, with IGROV1 ovarian, in the assay with SF-539 CNS, with SNB-75 CNS, with ACHN renal and in the assay on MALME-3M melanoma was > 100 µM each time. Moreover, the TGI in the assay on HS 578T breast, in the assay with HL-60(TB) leukemia, with U251 CNS and with OVCAR-3 ovarian was > 100 µM throughout.

`CC(C)(C)NC(=O)[C@H]1C[C@H]2CCCC[C@H]2CN1C[C@@H](O)[C@H](Cc1ccccc1)NC(=O)[C@H](CC(N)=O)NC(=O)c1ccc2ccccc2n1`: the GI50 in the assay on OVCAR-4 ovarian was 14 µM; in the assay on IGROV1 ovarian, 15.4 µM; in the assay with SF-539 CNS, 2.93 µM; in the assay with SNB-75 CNS, 12.5 µM; in the assay with ACHN renal, 16 µM; in the assay on MALME-3M melanoma, 17.7 µM. Moreover, the GI50 in the assay on HS 578T breast was 16.4 µM; in the assay with HL-60(TB) leukemia, 4.22 µM; with U251 CNS, 11.9 µM; in the assay with OVCAR-3 ovarian, 13.5 µM. The concentration for total growth inhibition (TGI) in the assay with OVCAR-4 ovarian is 31.5 µM; in the assay with IGROV1 ovarian, 38.8 µM; with SF-539 CNS, 23.9 µM; in the assay with SNB-75 CNS, 28.4 µM; with ACHN renal, 29.5 µM; in the assay with MALME-3M melanoma it was 37.8 µM. Also, the TGI is 60.2 µM in the assay with HS 578T breast, 26.3 µM with HL-60(TB) leukemia, 24.4 µM in the assay with U251 CNS and 33.5 µM in the assay with OVCAR-3 ovarian.

Turning to `CC(=O)Nc1ccc(S(=O)(=O)NNC(=O)c2cccnc2Nc2ccc(Cl)cc2)cc1`, the GI50 is 44.9 µM in the assay with OVCAR-4 ovarian; 27.3 µM with IGROV1 ovarian; 15.5 µM in the assay on SF-539 CNS; 5.54 µM in the assay on SNB-75 CNS; 52.2 µM in the assay with ACHN renal; > 100 µM in the assay with MALME-3M melanoma. The GI50 in the assay on HS 578T breast was 23.9 µM; with HL-60(TB) leukemia, 9.67 µM; with U251 CNS it was 23.8 µM; in the assay with OVCAR-3 ovarian it was 3.73 µM. In addition, the total growth inhibition concentration (TGI) with OVCAR-4 ovarian is > 100 µM; with IGROV1 ovarian it was > 100 µM; in the assay on SF-539 CNS, 75.5 µM; in the assay on SNB-75 CNS, > 100 µM; in the assay on ACHN renal, > 100 µM; in the assay with MALME-3M melanoma it was > 100 µM. Also, the TGI in the assay with HS 578T breast, with HL-60(TB) leukemia, with U251 CNS and in the assay with OVCAR-3 ovarian was > 100 µM throughout.

Turning to `CCN(CC)CCCC(C)Nc1c2ccc(C)cc2nc2ccc(OC)cc12` (stereo unspecified), the GI50 in the assay with OVCAR-4 ovarian was 1.13 µM; with IGROV1 ovarian it was 0.514 µM; in the assay with SF-539 CNS it was 1.71 µM; with SNB-75 CNS it was 1.37 µM; with ACHN renal, 0.741 µM; in the assay with MALME-3M melanoma it was 1.73 µM. The GI50 in the assay on HS 578T breast is 3.26 µM; in the assay on HL-60(TB) leukemia, 2.71 µM; with U251 CNS it was 1.35 µM; with OVCAR-3 ovarian, 1.75 µM. For the same compound, the concentration for total growth inhibition (TGI) was 3.02 µM in the assay on OVCAR-4 ovarian; 3.12 µM in the assay with IGROV1 ovarian; 3.98 µM in the assay with SF-539 CNS; 3.24 µM in the assay with SNB-75 CNS; 11.7 µM in the assay on ACHN renal; 3.53 µM in the assay with MALME-3M melanoma. Besides, the TGI in the assay on HS 578T breast is 17.2 µM; in the assay with HL-60(TB) leukemia, 9.44 µM; in the assay with U251 CNS it was 4.45 µM; in the assay on OVCAR-3 ovarian it was 4.14 µM.

As for `COc1ccc(-c2cn[nH]c2-c2cc(OC)c3c(c2)OCCO3)cc1`, the GI50 in the assay with OVCAR-4 ovarian is 1.03 µM; with IGROV1 ovarian it was 0.384 µM; in the assay on SF-539 CNS, 0.124 µM; in the assay with SNB-75 CNS, 0.122 µM; with ACHN renal it was 1.26 µM; in the assay on MALME-3M melanoma, 20.9 µM. Besides, the GI50 is 0.231 µM in the assay with HS 578T breast, 0.0815 µM in the assay with HL-60(TB) leukemia, 0.159 µM with U251 CNS and 0.0423 µM with OVCAR-3 ovarian. Further, the TGI with OVCAR-4 ovarian is > 100 µM; in the assay with IGROV1 ovarian it was 39.6 µM; with SF-539 CNS it was 0.441 µM; with SNB-75 CNS, 0.738 µM; in the assay with ACHN renal, > 100 µM; with MALME-3M melanoma it was 58.7 µM. Besides, the TGI in the assay with HS 578T breast came to 34.4 µM; in the assay on HL-60(TB) leukemia it was 13 µM; in the assay on U251 CNS it was 12.2 µM; in the assay on OVCAR-3 ovarian it was 0.3 µM.

As to `O=C1c2ccccc2-n2c1nc1ccccc1c2=O`, the concentration for total growth inhibition (TGI) was 53.7 µM in the assay on OVCAR-4 ovarian; > 92.1 µM in the assay on IGROV1 ovarian; 43.3 µM in the assay with SF-539 CNS; 83.8 µM in the assay on SNB-75 CNS; 29.3 µM in the assay on ACHN renal; 29 µM in the assay on MALME-3M melanoma. The total growth inhibition concentration (TGI) came to 45.2 µM with HS 578T breast, 41.4 µM with HL-60(TB) leukemia, 37.5 µM with U251 CNS and 30.2 µM in the assay with OVCAR-3 ovarian.

In the case of `COC(=O)CCC1=C(C)/C(=C/c2[nH]c(-c3ccc[nH]3)cc2OC)N=C1C`, the GI50 was 0.626 µM in the assay on OVCAR-4 ovarian; 1.4 µM in the assay on IGROV1 ovarian; 1.21 µM in the assay with SF-539 CNS; 0.382 µM with SNB-75 CNS; 0.84 µM in the assay on ACHN renal; 1.14 µM with MALME-3M melanoma. Also, the GI50 in the assay on HS 578T breast was 1.04 µM; in the assay on HL-60(TB) leukemia, 0.414 µM; in the assay on U251 CNS, 0.343 µM; with OVCAR-3 ovarian, 0.397 µM. Also, the TGI in the assay on OVCAR-4 ovarian amounted to 2.12 µM; in the assay on IGROV1 ovarian, 12 µM; in the assay with SF-539 CNS, 5.32 µM; in the assay with SNB-75 CNS, 3.18 µM; in the assay with ACHN renal it was 3.75 µM; in the assay with MALME-3M melanoma it was 3.27 µM. Moreover, the TGI came out at 9.01 µM in the assay on HS 578T breast, 2.38 µM in the assay with HL-60(TB) leukemia, 2.43 µM in the assay on U251 CNS and 1.7 µM in the assay on OVCAR-3 ovarian.
